Results from patent US20030054520A1, “Recombinant enzymes having improved NAD (H) affinity” (DEGUSSA AG, priority 2000, published 2003).

Each compound was assayed on G38D mutein (assay: Substrate spectrum: photometric reduction of keto substrates with NADH). Settings: relative to acetophenone; 10 mM keto substrate, 0.4 mM NADH, pH 7.0, 30° C.
Type: biochemical
Procedure: It is known that the NADP(H)-dependent wild-type enzyme can reduce numerous ketones, keto esters and other carbonyl-groupcontaining compounds stereospecifically. Hereinafter, only a few selected keto compounds are tested as substrates, in order to confirm that the substrate-recognition region has not been changed in principle by the change of coenzyme binding site. For this purpose the keto compounds are tested in the following mixture (total volume of 1 ml).
10 mM keto substrate; 1 MM MgCl2.6H2O; 0.4 mM NADH; 960 μl of triethanolamine buffer, 50 mM, pH 7.0; 10 μl of enzyme (G38D mutein); partly purified (phenylsepharose; see above).
The activity is determined photometrically at 340 nm (30° C.). The following table summarizes the activity values.

Row | Structure (SMILES) | Activity, relative [%]
1 | CCCCCC(C)=O [2-Heptanone] | 207
2 | CCCCC(C)=O [2-Hexanone] | 169
3 | CC1CCCCC1=O (stereo not drawn) [2-Methylcyclohexanone] | 334
4 | CCOC(=O)C(=O)CC [2-Oxobutyric acid ethyl ester] | 137
5 | CCOC(=O)C(=O)C(C)C [3-Methyl-2-oxobutyric acid ethyl ester] | 84
6 | CCC(=O)CC(=O)OC [3-Oxovaleric acid methyl ester] | 127
7 | CCOC(=O)CC(=O)CCl [4-Chloroacetoacetic acid ethyl ester] | 228
8 | CC(=O)c1ccc(Cl)cc1 [4-chloroacetophenone] | 68
9 | CCOC(=O)CC(C)=O [Acetoacetic acid ethyl ester] | 88
10 | COC(=O)CC(C)=O [Acetoacetic acid methyl ester] | 188
11 | CC(=O)c1ccccc1 [Acetophenone] | 100
12 | CCOC(=O)C(=O)CCc1ccccc1 [Benzyl pyruvate ethyl ester] | 13
13 | COC(=O)C(=O)c1ccccc1 [Phenylglyoxylic acid methyl ester] | 10
14 | CCOC(=O)C(C)=O [Pyruvic acid ethyl ester] | 260
15 | COC(=O)C(C)=O [Pyruvic acid methyl ester] | 191
